Test results published in US20250282736A1, “SMALL MOLECULE MODULATORS OF HUMAN PREGNANE X RECEPTOR” (ST. JUDE CHILDREN'S RESEARCH HOSPITAL, priority 2022, published 2025).
Where two headings read alike, the source gives them in different places.

Columns and labels:
[1] = target: T1, hPXR (Homo sapiens (Human), UniProt O75469); test: cell-based hPXR inverse agonistic assay; conditions: for inhibition at 10 µM: read-out: Inverse agonist (% inhibition at 10 μM)
[2] = target: T1, hPXR; test: cell-based hPXR agonistic assay; conditions: for Agonist (% activation at 10 μM): rifampicin at 10 μM as 100% activation, DMSO (0.3%) as 0%
[3] = target: T1, hPXR; test: cell-based hPXR antagonistic assay; conditions: for inhibition at 10 µM: read-out: Antagonist (% inhibition at 10 μM)
[4] = target: T1, hPXR; test: hPXR binding assay; conditions: for inhibition at 10 µM: read-out: Binding (% inhibition at 10 μM)
[5] = read-out: Binding (IC50/μM), hPXR binding assay

T1 sequence (O75469 whole entry): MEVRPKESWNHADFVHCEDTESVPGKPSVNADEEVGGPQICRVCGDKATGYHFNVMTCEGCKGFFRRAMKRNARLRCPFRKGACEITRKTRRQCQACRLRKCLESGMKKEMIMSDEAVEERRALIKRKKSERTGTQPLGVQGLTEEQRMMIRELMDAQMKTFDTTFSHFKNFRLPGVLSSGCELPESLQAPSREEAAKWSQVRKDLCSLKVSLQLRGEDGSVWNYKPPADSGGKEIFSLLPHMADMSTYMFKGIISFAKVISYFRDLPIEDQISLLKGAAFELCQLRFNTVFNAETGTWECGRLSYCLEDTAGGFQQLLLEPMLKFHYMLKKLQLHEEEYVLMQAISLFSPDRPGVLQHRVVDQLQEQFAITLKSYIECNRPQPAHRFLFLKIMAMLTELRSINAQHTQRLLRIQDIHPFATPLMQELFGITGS

SMILES	IC50 [1]	inhibition at 10 µM [1]	EC50 [2]	IC50 [3]	inhibition at 10 µM [3]	inhibition at 10 µM [4]	IC50 [4, 5]	IC50 [4]	IC50 ([1]; read-out: Inverse agonist (IC50/μM), cell-based hPXR inverse agonistic assay)	Antagonist (% inhibition at 10 μM) ([3]; at 10 μM, SPA70 at 10 μM with rifampicin (5 μM) as 100% inhibition, rifampicin alone (5 μM) as 0%)	IC50 ([3]; read-out: Antagonist (IC50/μM), cell-based hPXR antagonistic assay with rifampicin (5 μM))	Agonist (% activation at 10 μM) [2]	EC50 ([2]; read-out: Agonist (EC50/μM), cell-based hPXR agonistic assay)
C#CCCCOc1cc(NC(=O)c2nnn(-c3cc(OC)ccc3OC)c2C)cc(C(C)(C)C)c1 [D19]	0.032 ± 0.007 µM	116%	> 30 µM	0.19 µM	107%	25%	0.024 µM						
COc1ccc(Cl)cc1-n1nnc(C(=O)Nc2cc(O)cc(C(C)(C)C)c2)c1C [F4]	0.29 ± 0.18 µM	101%	> 30 µM	1.18 ± 0.21 µM	104%	84%	1.64 µM						
COc1ccc(OC)c(-n2nnc(C(=O)Nc3cc(OCCOCCOCCOCCN)cc(C(C)(C)C)c3)c2C)c1 [D35]	> 30 µM		> 30 µM	19.7 ± 7.63 µM	84%			> 30 µM					
CCCCNc1cc(NC(=O)c2nnn(-c3cc(C)ccc3OC)c2C)cc(C(C)(C)C)c1 [G6]	0.044 ± 0.014 µM	79%	> 30 µM	0.15 µM	104%	87%	0.25 µM						
CNc1cc(NC(=O)c2nnn(-c3cc(OC)ccc3OC)c2C)cc(C(C)(C)C)c1 [D2, N-(3-(tert-butyl)-5-(methylamino)phenyl)-1-(2,5-dimethoxyphenyl)-5-methyl-1H-1,2,3-triazole-4-carboxamide]			> 30 µM				0.33 ± 0.11 µM		0.12 µM	(109 ± 6)%	0.41 ± 0.13 µM		
COc1ccc(OC)c(-n2nnc(C(=O)Nc3cc(OCCCCCCCCCl)cc(C(C)(C)C)c3)c2C)c1 [D24]	1.07 ± 0.43 µM	53%	> 30 µM	2.69 ± 0.93 µM	46%	58%	0.57 µM						
CCOc1cc(NC(=O)c2nnn(-c3cc(OC)ccc3OC)c2C)nc(OCC)n1 [A18]	> 30 µM		> 30 µM	> 30 µM		36%	12.6 ± 3.09 µM						
COc1ccc(Cl)cc1-n1nnc(C(=O)Nc2cc(N)cc(C(C)(C)C)c2)c1C [F2, N-(3-amino-5-(tert-butyl)phenyl)-1-(5-chloro-2-methoxyphenyl)-5-methyl-1H-1,2,3-triazole-4-carboxamide]	3.62 ± 1.74 µM	101%	> 30 µM	18.2 ± 11.1 µM	56%	65%	7.68 ± 1.45 µM						
COc1ccc(OC)c(-n2nnc(C(=O)Nc3ccc(N)c(C(C)(C)C)c3)c2C)c1 [C2, N-(4-amino-3-(tert-butyl)phenyl)-1-(2,5-dimethoxyphenyl)-5-methyl-1H-1,2,3-triazole-4-carboxamide]	> 30 µM			> 30 µM		86%	4.12 ± 1.4 µM					(33 ± 7)%	0.28 µM
COc1ccc(OC)c(-n2nnc(C(=O)Nc3cc(NCC(=O)OC(C)(C)C)cc(C(C)(C)C)c3)c2C)c1 [D8, tert-butyl (3-(tert-butyl)-5-(1-(2,5-dimethoxyphenyl)-5-methyl-1H-1,2,3-triazole-4-carboxamido)phenyl)glycinate]	0.12 µM	127%	> 30 µM	0.46 ± 0.06 µM	104%	81%	0.33 µM						
COc1ccc(OC)c(-n2nnc(C(=O)Nc3ccc(C)cc3)c2C)c1 [A2]	> 30 µM		2.44 ± 1.02 µM	> 30 µM		22%	14 ± 4.79 µM					(32 ± 7)%	
COc1ccc(OC)c(-n2nnc(C(=O)Nc3cc(N=C=S)cc(C(C)(C)C)c3)c2C)c1 [D11]	2.55 ± 0.64 µM	95%	> 30 µM	30.2 ± 16.1 µM	26%	47%	2.6 ± 0.51 µM						
COc1ccc(OC)c(-n2nnc(C(=O)Nc3cc(C(C)(C)C)ccc3OCCOCCOCCOCCOCCOCCOc3ccc(C(C)(C)C)cc3NC(=O)c3nnn(-c4cc(OC)ccc4OC)c3C)c2C)c1 [B23, N,N′-((3,6,9,12,15-pentaoxaheptadecane-1,17-diylbis(oxy))bis(3-(tert-butyl)-6,1-phenylene))bis(1-(2,5-dimethoxyphenyl)-5-methyl-1H-1,2,3-triazole-4-carboxamide)]	16.7 ± 3.34 µM	45%	> 30 µM	> 30 µM				> 30 µM					
CCC(C)Oc1ccc(C(C)(C)C)cc1NC(=O)c1nnn(-c2cc(C)ccc2OC)c1C (stereo not shown) [G12]	> 30 µM		0.018 µM	0.0094 µM	73%	92%	0.0076 ± 0.0031 µM					(17 ± 1)%	
